According to US12102648B2, “Orally-bioavailable nucleoside analogs” (priority 2021, dated 2024):
Where two headings read alike, the source gives them in different places.

Assay: in vitro
Assay type: in vitro ADME
Settings: human
Procedure, shortened: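 Permeability measured in both directions across 19-day Caco-2 layers with TEER above 600 […], incubated at 37° C without shaking; donor and receiver sampled at 10 and 90 min for LC/MS/MS. Derived values: Papp (cm/s), efflux ratio, recovery.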

[1] = Caco-2 monolayer, apical to basolateral, 90-minute incubation, read-out: Papp, A-B
[2] = Caco-2 monolayer, basolateral to apical, 90-minute incubation, read-out: Papp, B-A
[3] = Caco-2 monolayer, ER>2 indicates potential efflux transporter substrate, read-out: ER (efflux ratio)

Compound	Papp A→B at 90 min (Caco-2) [×10⁻⁶ cm/s]	Papp B→A at 90 min (Caco-2) [×10⁻⁶ cm/s]	efflux ratio at 90 min (Caco-2)	Papp A→B at 90 min [1] [×10⁻⁶ cm/s]	Papp B→A at 90 min [2] [×10⁻⁶ cm/s]	efflux ratio at 90 min [3]
CN(C(=O)CC1CCCCC1)c1nc(N)nc2c1ncn2[C@@H]1O[C@H](COC(=O)CC2CCCCC2)[C@@H](O)[C@@]1(C)F [Compound 291, ((2R,3R,4R,5R)-5-(2-amino-6-(2-cyclohexyl-N-methylacetamido)-9H-purin-9-yl)-4-fluoro-3-hydroxy-4-methyltetrahydrofuran-2-yl)methyl 2-cyclohexylacetate]	11	17	1.6			
CNc1nc(NC(=O)CC2CCCCC2)nc2c1ncn2[C@@H]1O[C@H](COC(=O)CC2CCCCC2)[C@@H](O)[C@@]1(C)F [Compound 292, ((2R,3R,4R,5R)-5-(2-(2-cyclohexylacetamido)-6-(methylamino)-9H-purin-9-yl)-4-fluoro-3-hydroxy-4-methyltetrahydrofuran-2-yl)methyl 2-cyclohexylacetate]	2	1	0.5			
CNc1nc(N)nc2c1ncn2[C@@H]1O[C@H](COC(=O)CC(C)C)[C@@H](OC(=O)CC(C)C)[C@@]1(C)F [Compound 312, (2R,3R,4R,5R)-5-(2-amino-6-(methylamino)-9H-purin-9-yl)-4-fluoro-4-methyl-2-(((3-methylbutanoyl)oxy)methyl)tetrahydrofuran-3-yl 3-methylbutanoate]	23	6.5	0.28			
CCC(=O)O[C@@H]1[C@@H](COC(C)=O)O[C@@H](n2cnc3c(NC)nc(N)nc32)[C@]1(C)F [Compound 329, (2R,3R,4R,5R)-2-(acetoxymethyl)-5-(2-amino-6-(methylamino)-9H-purin-9-yl)-4-fluoro-4-methyltetrahydrofuran-3-yl propionate]	16	18	1.1			
CCC(=O)Nc1nc(NC)c2ncn([C@@H]3O[C@H](COC(C)=O)[C@@H](O)[C@@]3(C)F)c2n1 [Compound 330, ((2R,3R,4R,5R)-4-fluoro-3-hydroxy-4-methyl-5-(6-(methylamino)-2-propionamido-9H-purin-9-yl)tetrahydrofuran-2-yl)methyl acetate]	0.54	7	13			
CCC(=O)Nc1nc(NC)c2ncn([C@@H]3O[C@H](COC(C)=O)[C@@H](OC(=O)CC)[C@@]3(C)F)c2n1 [Compound 331, (2R,3R,4R,5R)-2-(acetoxymethyl)-4-fluoro-4-methyl-5-(6-(methylamino)-2-propionamido-9H-purin-9-yl)tetrahydrofuran-3-yl propionate]	7.9	16	2.1			
CNc1nc(NC(=O)CC(C)C)nc2c1ncn2[C@@H]1O[C@H](COC(C)=O)[C@@H](OC(=O)CC(C)C)[C@@]1(C)F [Compound 332, (2R,3R,4R,5R)-2-(acetoxymethyl)-4-fluoro-4-methyl-5-(6-(methylamino)-2-(3-methylbutanamido)-9H-purin-9-yl)tetrahydrofuran-3-yl 3-methylbutanoate]	11	2.6	0.22			
CNc1nc(NC(=O)Cc2ccccc2)nc2c1ncn2[C@@H]1O[C@H](COC(C)=O)[C@@H](O)[C@@]1(C)F [Compound 334, ((2R,3R,4R,5R)-4-fluoro-3-hydroxy-4-methyl-5-(6-(methylamino)-2-(2-phenylacetamido)-9H-purin-9-yl)tetrahydrofuran-2-yl)methyl acetate]				0.76	19	25
CCCCC(=O)Nc1ncnn2c([C@]3(C#N)O[C@H](CO)[C@@H](OC(=O)Cc4ccccc4)[C@H]3O)ccc12 [Compound 340, (2R,3S,4R,5R)-5-cyano-4-hydroxy-2-(hydroxymethyl)-5-(4-pentanamidopyrrolo[2,1-f][1,2,4]triazin-7-yl)tetrahydrofuran-3-yl 2-phenylacetate]				0.64	0.23	0.35
CCCCC(=O)Nc1ncnn2c([C@]3(C#N)O[C@H](COC(=O)[C@@H](N)C(C)C)[C@@H](O)[C@H]3O)ccc12 [Compound 341, ((2R,3S,4R,5R)-5-cyano-3,4-dihydroxy-5-(4-pentanamidopyrrolo[2,1-f][1,2,4]triazin-7-yl)tetrahydrofuran-2-yl)methyl L-valinate]	0.13	2.3	18			
N#C[C@@]1(c2ccc3c(NC(=O)c4ccccc4)ncnn23)O[C@H](CO)[C@@H](OC(=O)CC2CCCCC2)[C@H]1O [Compound 342, (2R,3S,4R,5R)-5-(4-benzamidopyrrolo[2,1-f][1,2,4]triazin-7-yl)-5-cyano-4-hydroxy-2-(hydroxymethyl)tetrahydrofuran-3-yl 2-cyclohexylacetate]	1.1	0.39	0.34			
CC(=O)O[C@@H]1[C@H](OC(=O)[C@@H](N)C(C)C)[C@@H](COC(=O)Cc2ccccc2)O[C@@]1(C#N)c1ccc2c(N)ncnn12 [Compound 343, (2R,3R,4R,5R)-4-acetoxy-5-(4-aminopyrrolo[2,1-f][1,2,4]triazin-7-yl)-5-cyano-2-((2-phenylacetoxy)methyl)tetrahydrofuran-3-yl L-valinate]				1.2	6.5	5.6
CC(=O)Nc1ncnn2c([C@]3(C#N)O[C@H](COC(=O)Cc4ccccc4)[C@@H](OC(=O)[C@@H](N)C(C)C)[C@H]3O)ccc12 [Compound 344, (2R,3S,4R,5R)-5-(4-acetamidopyrrolo[2,1-f][1,2,4]triazin-7-yl)-5-cyano-4-hydroxy-2-((2-phenylacetoxy)methyl)tetrahydrofuran-3-yl L-valinate]				0.8	9.7	12
N#C[C@@]1(c2ccc3c(NC(=O)[C@@H](N)Cc4ccc(F)cc4)ncnn23)O[C@H](CO)[C@@H](OC(=O)CC2(N)CCCCC2)[C@H]1O [Compound 345, (2R,3S,4R,5R)-5-(4-((S)-2-amino-3-(4-fluorophenyl)propanamido)pyrrolo[2,1-f][1,2,4]triazin-7-yl)-5-cyano-4-hydroxy-2-(hydroxymethyl)tetrahydrofuran-3-yl 2-(1-aminocyclohexyl)acetate]	0.09	3.9	43			
CCCC(=O)Nc1ncnn2c([C@]3(C#N)O[C@H](COC(=O)Cc4ccccc4)[C@@H](OC(=O)[C@@H](N)C(C)C)[C@H]3O)ccc12 [Compound 346, (2R,3S,4R,5R)-5-(4-butyramidopyrrolo[2,1-f][1,2,4]triazin-7-yl)-5-cyano-4-hydroxy-2-((2-phenylacetoxy)methyl)tetrahydrofuran-3-yl L-valinate]				1.6	9	5.7
CC(C)C(=O)Nc1ncnn2c([C@]3(C#N)O[C@H](COC(=O)Cc4ccccc4)[C@@H](OC(=O)[C@@H](N)C(C)C)[C@H]3O)ccc12 [Compound 347, (2R,3S,4R,5R)-5-cyano-4-hydroxy-5-(4-isobutyramidopyrrolo[2,1-f][1,2,4]triazin-7-yl)-2-((2-phenylacetoxy)methyl)tetrahydrofuran-3-yl L-valinate]				7	17	2.4
